Tested on: E. coli
Assay: Disk diffusion method, zone of inhibition
Format: cell-based, Escherichia coli
Method: Working solutions were prepared by dissolving of N-alkylimidazoles (100 mg) in ethanol (50 μL). Blank disks were impregnated with 10 μL of solution and the disks placed on nutrient agar containing a confluent E. coli culture. The plates were incubated at 37° C. for 18-24 h and antimicrobial activity determined by measuring the zone of inhibition. The experiments were performed in triplicate.
The antibacterial activity of N-alkylimidazoles was investigated by the disk diffusion and broth methods against E. coli as a model microorganism.

With “silver(I)-N-octylimidazole complex [Ag(octlm)2]” as the substance, how does the “antibacterial activity (in words)” value (disk diffusion against E. coli, comparison across alkyl chain lengths) read?
The value was “superior activity”.

And the “Zone of inhibition diameter” value (disk diffusion, nutrient agar with confluent E. coli culture, 37° C., 18-24 h, triplicate)?
The value was 21 ± 1.4 mm.

Source: US20180255777A1, “Metal Ion Complex-Modified Layered Silicates” (priority 2017, published 2018)
